Where a name gives a salt, the structure may show the parent alone. ± gives the uncertainty stated by the source.
Columns and labels:
[1] = system: cysteine peptide Ac-RFAACAA-COOH; test: efficacy of cysteine peptide change (negative = depletion) (% activity); higher = less depletion; details: incubation time: 24 h
[2] = system: THP-1; test: efficacy of IL-8 induction relative to DMSO (% activity); higher = stronger induction; details: exposure time: 18 h
[3] = system: KeratinoSens (HaCaT ARE-luciferase) cells; test: efficacy of ARE luciferase induction relative to DMSO (% activity over DMSO); higher = stronger induction; details: exposure time: 24 h
[4] = system: cysteine peptide Ac-RFAACAA-COOH; test: AC50 of cysteine peptide concentration-response (direction given by sign of efficacy); higher = less potent; details: incubation time: 24 h
[5] = system: lysine peptide Ac-RFAAKAA-COOH; test: efficacy of lysine peptide change (negative = depletion) (% activity); higher = less depletion; details: incubation time: 24 h
[6] = system: KeratinoSens (HaCaT ARE-luciferase) cells; test: cytotoxicity AC50 (CellTiter-Fluor viability); higher = less cytotoxic; details: exposure time: 24 h
[7] = system: KeratinoSens (HaCaT ARE-luciferase) cells; test: AC50 of Nrf2/ARE luciferase induction; higher = less potent; details: exposure time: 24 h

Structure (SMILES) | efficacy of cysteine peptide change [1] | AC50 [4] | efficacy of lysine peptide change [5] | efficacy of IL-8 induction [2] | efficacy of ARE luciferase induction [3] | cytotoxicity AC50 [6] | AC50 of Nrf2/ARE luciferase induction [7]
CCOP(=S)(OCC)Oc1nc(Cl)c(Cl)cc1Cl [Chlorpyrifos] | -97.5 ± 7.8 | 9.18 ± 2.6 µM | 26.7 ± 11 | 8.52 ± 1.5 | 32.7 ± 17 |  | 
COC(=O)Nc1nc2ccc(C(=O)C3CC3)cc2[nH]1 [Cyclobendazole] | -42.3 ± 2.6 | 10.1 ± 5.7 µM | -14 ± 5.3 | 24.9 ± 13 | 21.4 ± 9.4 | 3 ± 0.85 µM | 
O=C1c2cccc(O)c2C(=O)c2c(O)cccc21 [Danthron] | -72.3 ± 21 | 4.77 ± 1.4 µM | -14.7 ± 8 | 2.66 ± 9.7 | 15 ± 14 |  | 
CCOP(=S)(OCC)SC(CCl)N1C(=O)c2ccccc2C1=O (stereo unspecified) [Dialifor] | -101 ± 9.9 | 3.87 ± 0.66 µM | -69.5 ± 7.4 | 5.64 ± 12 | 63 ± 32 | 66.8 ± 15 µM | 
CCCCC/C=C\C=C\C(=O)OCC [Ethyl (2E,4Z)-deca-2,4-dienoate] | -99.8 ± 5.5 | 13.7 ± 2.3 µM | -21.2 ± 2.9 | 24.4 ± 5.7 | 68.2 ± 0.72 |  | 
CO[C@@H]1[C@H](OC(=O)/C=C/C=C/C=C/C=C/C(=O)O)CC[C@]2(CO2)[C@H]1[C@@]1(C)O[C@@H]1CC=C(C)C [Fumagillin] | -117 ± 8.1 | 23 ± 9 µM | 19.2 ± 21 | 0 | -9.86 ± 16 |  | 
OCc1ccco1 [Furfuryl alcohol] | -74.1 ± 7.2 | 74.3 ± 13 µM | -37.2 ± 5.8 | 0 | 37.8 ± 37 |  | 
CC[C@@]1(O)C(=O)OCc2c1cc1n(c2=O)Cc2c-1nc1ccccc1c2/C=N/OC(C)(C)C [Gimatecan] | -75.2 ± 18 | 38.5 ± 5.3 µM | 30.4 ± 65 | 24.2 ± 3.5 | 57.7 ± 22 | 0.99 ± 0.6 µM | 
OC12N=C(c3ccccc3)SC1Cc1cc(Cl)ccc12 (stereo unspecified) [HMR1426] |  |  |  | 0 | 86.8 ± 69 |  | 28.9 µM
ClC1=C(Cl)C(Cl)(Cl)C(Cl)=C1Cl [Hexachlorocyclopentadiene] | -137 ± 8.4 | 30.4 ± 13 µM | -11.3 ± 2.7 | 83.1 ± 8.1 | 48.2 ± 5.1 |  | 
COP(=S)(Oc1cc(Cl)c(Br)cc1Cl)c1ccccc1 (stereo unspecified) [Leptophos] | -94.8 ± 3.7 | 41.6 ± 5.3 µM | 3.37 ± 19 | 33.4 ± 20 | 21.4 ± 11 | 46.5 ± 3.1 µM | 
CCOC(=O)CC(SP(=S)(OC)OC)C(=O)OCC (stereo unspecified) [Malathion] | -114 ± 8.5 | 3.05 ± 0.2 µM | 38.6 ± 20 | 1.28 ± 2.2 | 10.2 ± 27 |  | 
CC(C)Nc1ccc(Nc2ccccc2)cc1 [N-Isopropyl-N'-phenyl-p-phenylenediamine] | -67.5 ± 20 | 2.82 ± 1 µM | -5.38 ± 9.3 | 40.6 ± 19 | -24.8 ± 11 | 20.5 ± 6.5 µM | 
O=C(O)c1ccccc1C(=O)Nc1cccc2ccccc12 [Naptalam*] | -104 ± 4.3 | 4 ± 1.3 µM | 10.2 ± 26 | 7.99 ± 7 | 61.4 ± 78 | 25.1 µM | 
O=C(N/N=C/c1ccc([N+](=O)[O-])o1)c1cc([N+](=O)[O-])cc([N+](=O)[O-])c1O [Nifursol] | -105 ± 6.6 | 77.9 ± 29 µM | -10.9 ± 19 | 0 | 25.2 ± 9.3 |  | 
N#CCC#N [Propanedinitrile] | -64.6 ± 10 | 72.9 ± 20 µM | 8.33 ± 14 | 0 | 31.6 ± 5.9 |  | 
Fc1ccc(Oc2ccnc3cc(Cl)cc(Cl)c23)cc1 [Quinoxyfen] | 3.98 ± 6.9 |  | -7.82 ± 12 | 25.9 ± 3.1 | -5.76 ± 35 | 57 ± 12 µM | 
CS/C(C)=N\OC(=O)N(C)SN(C)C(=O)O/N=C(\C)SC [Thiodicarb] | -96.8 ± 3.2 | 0.59 ± 0.11 µM | 38.2 ± 2.7 | 10.8 ± 9.8 | -25.2 ± 33 |  | 
[OH-].c1cc[c]([Sn+]([c]2ccccc2)[c]2ccccc2)cc1 [Triphenyltin hydroxide] | -39.1 ± 94 |  | 14.6 ± 2.5 | 16.4 ± 2.2 | 429 ± 120 | 2.82 µM | 
CCC(C)(NC(=O)c1cc(Cl)c(C)c(Cl)c1)C(=O)CCl (stereo unspecified) [Zoxamide] | -8.25 ± 7.4 |  | 19.4 ± 7.3 | 84.9 ± 14 | 60.2 ± 4.2 | 41.4 ± 2.8 µM | 

Further lines, with some results ahead:

efficacy of cysteine peptide change [1] | AC50 [4] | efficacy of lysine peptide change [5] | Structure (SMILES) | efficacy of IL-8 induction [2] | efficacy of ARE luciferase induction [3] | cytotoxicity AC50 [6] | AC50 of Nrf2/ARE luciferase induction [7]
-30.6 ± 8 | 6.04 ± 4.1 µM | 2.12 ± 19 | C=CC(C)(CCC=C(C)C)OC(=O)CC(C)C (stereo unspecified) [Linalyl isovalerate] | 0 | 4.06 ± 7 |  | 
-101.7 ± 0.97 | 7.77 ± 3.2 µM | -11.4 ± 12 | Nc1ccc(Nc2ccccc2)cc1 [N-Phenyl-1,4-benzenediamine] | 5.67 ± 11 | 48.5 ± 28 |  | 
18 ± 19 |  | 168 ± 11 | CCCCCCCCCCCC(=O)NCCCN(C)C [N-[3-(Dimethylamino)propyl]dodecanamide] | 36.3 ± 13 | 4.32 ± 44 | 42.1 ± 9.5 µM | 
-95.2 ± 6.3 | 2.39 ± 0.7 µM | 12.6 ± 12 | CCCCC1C(=O)N(c2ccccc2)N(c2ccc(O)cc2)C1=O (stereo unspecified) [Oxyphenbutazone] | 31.1 ± 25 | 221 ± 160 | 11.7 ± 0.79 µM | 
-35 ± 6.8 |  | 26.2 ± 4.5 | Nc1ccc(/N=N/c2ccccc2)c(N)n1 [Phenazopyridine hydrochloride] | 51.3 ± 29 | 35.5 ± 17 | 66.8 ± 15 µM | 
-69.8 ± 10 | 25.9 ± 11 µM | -22.5 ± 15 | Oc1ccc(/C=C/c2cc(O)cc(O)c2)cc1 [Resveratrol] | 3.12 ± 5.4 | 29.2 ± 6.2 |  | 
58.9 ± 18 |  | 114 ± 27 | C[n+]1cc2c3c(ccc2c2ccc4cc5c(cc4c21)OCO5)OCO3 [Sanguinarine] | 59.1 ± 21 | -34.7 ± 1.6 | 7.37 ± 0.5 µM | 
-110 ± 11 | 50.1 µM | 11.2 ± 11 | NC(=O)n1c(O)c(C(=O)c2cccs2)c2cc(Cl)ccc21 [Tenidap*] | 4.22 ± 7.3 | 19.7 ± 5.4 | 53.4 ± 15 µM | 
61.4 ± 19 |  | 103 ± 44 | CCCCCCCCCCCCCC[N+](C)(C)C [Tetradonium bromide] | 43 ± 20 | -21.2 ± 4.7 | 14.2 ± 1.6 µM | 
2.83 ± 4.9 |  | 0.27 ± 31 | c1ccc2[nH]c(-c3cscn3)nc2c1 [Thiabendazole] | 11.1 ± 3.7 | 33 ± 4.4 | 14.8 ± 1.9 µM | 
-109 ± 7.9 | 2.54 ± 0.48 µM | 28 ± 5.4 | O=C(CS)Nc1ccccc1 [Thioglycolic acid anilide] | 35.1 ± 9.2 | -15.9 ± 47 |  | 
-82.9 ± 1.6 | 18.7 ± 3.4 µM | 17.2 ± 18 | CCN(CC)CCSC(=O)C(c1ccccc1)c1ccccc1 [Thiphenamil] | 8.63 ± 8 | 63.3 ± 29 |  | 

Source: the supplement of paper PMC10933113
